Test system: exercising horses
Experiment: Simulated race test (SRT) on high-speed treadmill
Format: in vivo
Source text: The purpose of this study was to determine the effects of intravenous administration of E-4021 on cardiorespiratory variables in exercising horses to facilitate the selection of a product dose for the control of hemorrhage associated with Exercise Induced Pulmonary Hemorrhage (EIPH). The formulation given was the propylene glycol formulation of Table 1.
Animals: The Rutgers University Institutional Animal Care and Facilities Committee approved all methods and procedures used in this experiment. Eight mature unfit Standardbred horses, 4 geldings and 4 mares were used in this study. The horses were healthy and acceptable for the study as determined by the study veterinarian. All horses underwent a physical examination to establish suitability for inclusion within the study. This included a physical examination and body weights. All of the horses were dewormed and vaccinated per standard veterinary practice. Animals were fed a maintenance ration of alfalfa/grass hay ad libitum and concentrate as needed. Water and mineral blocks were provided ad libitum. The horses were housed individually in 3×3 m stalls between 1600 to 0700 hours. They then performed their daily exercise followed by turnout in groups of 4 in 2 acres dry lot paddocks for ˜7 hrs/day.
General Study Design: There were four phases in this study detailed below. The horses performed conditioning exercise 4 d/week in a motorized equine exercise machine (Equi-cizer, Calgary, Canada) and heavy exercise 1 d/week on a high-speed treadmill (Sato I, Lexington Ky.) during Phase I. Heavy exercise prepared the horses for the later exercise tests performed during Phase Ib, Phase II, and Phase III of the experiment. The exercise tests were performed in the place of the heavy exercise training during those later three periods.
Phase II: This was the first part of the main study with test-article dosing of the horses (Weeks ≥12). This part of the experiment was conducted using a randomized semi-crossover design with each horse undergoing a control round within the first two weeks of the phase. Horses were randomly assigned to one of five treatments (CON; 50-45; 100-45; 50-90; 100-90). Control (CON) where no drug was administered; 50-45 where they were tested 45 minutes after receiving a dose of 50 mg; 100-45 where they were tested 45 minutes after receiving 100 mg of the test-article; 50-90 where they were tested 90 minutes after receiving a 50 mg dose; and 100-90 where they were tested 90 minutes after receiving a 100 mg dose. For this phase, the horses ran a simulated race test (SRT) every week on the heavy exercise days. Group A (n=4) horses ran their tests on Thursdays (mornings) and Group B (n=4) horses ran their tests on Fridays (mornings). All horses continued with light and moderate exercise as indicated for the other study days.
Phase III: This was the second part of the main study. This part of the experiment was conducted using a randomized crossover design where horses were initially assigned to one of four treatments (CON-B; 100-90B; 150-90; 200-90). Control (CON-B) where the horses received no drug; 100-90B where they were tested 90 minutes after receiving a 100 mg dose; 150-90 where they were tested 90 minutes after receiving a 150 mg dose; and 200-90 where they were tested 90 minutes after receiving a 200 mg dose. As with the other treatment phase the horses ran a weekly simulated race test (SRT) on the heavy exercise days. Group A (n=4) horses ran their tests on Thursdays (mornings) and Group B (n=4) horses ran their tests on Fridays (mornings).
Simulated Race Test (SRT): During the SRT, each horse ran at a speed calculated to correspond to 110% of the speed required to produce maximal oxygen uptake as measured during the GXTs performed during Phase Ib. […] Hemodynamic measurements were recorded, and blood samples were obtained to correspond with the end of the warm-up, at 1 minute and 2 minutes of the high-speed run, and at the end of the recovery period. […]

sodium 1-[6-chloro-4-(3,4-methylenedioxybenzyl)-aminoquinazolin-2-yl]piperidine-4-carboxylate sesquihydrate [E-4021]
Attenuation of increased exercise-related pulmonary vascular pressures (100 mg (approximately 500 kg horse), 90 minutes prior to intense exercise): greatest attenuation
Lower PA pressure after 2 min intense exercise (100 mg dose given at 90 min, Phase II and III): ~30 mm Hg
Magnitude of PA pressure, 100 mg vs. 150 mg vs. 200 mg trials (90 min before exercise, P>0.05, sesquihydrate): no differences
Lower PAP (Example 8, 100 mg at 90 minutes before exercise, propylene glycol formulation): ~30 mmHg
Mean pulmonary artery pressures compared to control (Phase III, 100, 150, 200 mg 90 min before, at 2 minutes of high intensity exercise, P<0.05): lower
Markers of aerobic and anaerobic performance (SRT, propylene glycol formulation): did not alter
Effect on plasma lactate concentration (SRTs, P>0.05): no effect
Effect on plasma calcium concentration (during the SRTs): no effect
Effect on plasma glucose concentration (during the SRTs): significant effect

From patent publication US20220387433A1, “TYPE V PHOSPHODIESTERASE INHIBITOR COMPOSITIONS, METHODS OF MAKING THEM AND METHODS OF USING THEM IN PREVENTING OR TREATING ELEVATED PULMONARY VASCULAR PRESSURE OR PULMONARY HEMORRHAGES” (American Regent, Inc., priority 2019, published 2022)
